The text below walks through data of US20240418626A1, “METHOD, DEVICE, AND SYSTEM FOR CELL IDENTIFICATION” (Ruixin (Fuzhou) Technology Co., Ltd., priority 2021, published 2024).

Common to all, as to assay type: cell-based
The subject of experiment [1] is A549 cells. The experiment is described as follows: Cell vitality by MTT assay in A549 cells treated with 5-FU. The procedure: (§1) Specifically, in the present embodiment, non-small cell lung cancer A549 cells are cultured on multiple cellular traction force detection devices, and then are treated with various doses of cell proliferation inhibitor 5-fluorouracil (5-FU). Subsequently, the cellular traction forces at different time are monitored by using the cellular identification system described in the twentieth embodiment. Cell proliferation and cytotoxicity are monitored using the CCK-8 kit, with cell vitality measured by the MTT assay serving as a control group, yielding the data for FIGS. 11B and 11C.
On the technique in general: Tetrazolium assays rely on reduction of a dye to a coloured formazan, in cell work by metabolically active cells.

Experiment [2] has as its system A549 cells. In words: Cell vitality reflected by cellular traction force in A549 cells treated with 5-FU. The conditions noted are these: for time of significant decrease in cellular traction force: FIG. 11C. The procedure:
as §1

Experiment [3] concerns Breast cancer cells MCF-7 tumor cell aggregates. The experiment is described as follows: 5-Fu drug sensitivity of tumor cell aggregates on the cellular traction force detection device. The conditions noted are these: MCF-7 aggregates, 200 μM, cultured for one day, FIGS. 13A and 13B. The procedure: S1, Generation of tumor cell aggregates: FN 50 μg/mL is coated on the top of the micro-/nano-pillars of the cellular traction force detection device and sterilized with UV light for 30 minutes. Breast cancer cells MCF-7 (approximately 1×10^5 to 9×10^5 cells) are seeded on the surface of the micro-/nano-pillars of the cellular traction force detection device (number of micro-/nano-pillars not limited) and then cultured in 3dGRO™ Spheroid Medium (S3077) for more than three days to guide the formation of tumor cell aggregates.
S2, Applying the generated tumor cell aggregates to 5-Fu drug sensitivity experiments: 200 μM of 5-Fu is added to the tumor cell aggregates and cultured for one day. In the experiment, cellular traction force detection devices with tumor cell aggregates (along with the culture medium) before and after the addition of 5-Fu are monitored using the information acquisition unit (CCD sensor) within the cellular identification device to capture light reflection signals.

[4] abbreviates: various doses of 5-FU, FIGS. 11B and 11C.

Turning to `O=c1[nH]cc(F)c(=O)[nH]1` [5-FU, 5-fluorouracil], the “changes in cell vitality measured by the MTT assay” value with A549 cells [1] (after 12 hours of treatment, FIG. 11C) is reported as “not noticeable”. Further, the “cell vitality measured by the traditional MTT assay” value in the experiment with A549 cells [1] (setting [4]) is reported as “dose-dependent decrease”. Besides, the “time of significant decrease in cellular traction force” value in the experiment on A549 cells [2] (0.5 μM treatment dose) worked out at 6 h; in the experiment on A549 cells [2] (1 μM treatment dose) it was 3 h. Besides, in the experiment with A549 cells [2] (different doses, treatment for 24 hours, FIG. 11B), the “cellular vitality as reflected by traction forces compared to control group DMSO” value is given as “decreases more significantly”. Besides, the “cell vitality reflected by cellular traction forces” value in the experiment with A549 cells [2] (setting [4]) was “dose-dependent decrease”. The “reflection signals of tumor cell aggregates after treatment” value in experiment [3] is “significantly weaken”.
